In US5348977A, “Cobalt complexes as anti-cancer agents” (Warner Lambert Company, priority 1991, dated 1994):

What was measured:
AA8 cells [1] = assay: Growth inhibition, AA8 cells with lethally-irradiated AA8 feeder cells, aerobic or hypoxic 18 h (Table 3); format: cell-based, hamster; settings: for IC50: AA8, aerobic, 18 h exposure, read-out: IC50 (air) AA8; for HF(air): IC50 (AA8)/IC50 (UV4), aerobic, 1080 min; for IC50 (air)/IC50 (N2) AA8: aerobic IC50 /hypoxic IC50, AA8, 18 h
Procedure: (§1) IC50 Growth inhibition studies were performed as described in detail elsewhere (W. R. Wilson, R. F. Anderson and W. A. Denny. J. Med. Chem., 1989, 32, 23; G. J. Finlay, B. C. Baguley and W. R. Wilson. Anal. Biochem., 1984, 139, 172.), using 200 viable AA8 or 300 viable UV4 cells plus 5000 lethally-irradiated AA8 feeder cells per well in 96-well tissue culture dishes. AA8 and UV4 cells were maintained in logarithmic-phase growth in […] tissue culture flasks with subculture twice weekly by trypsinization. The growth medium was antibiotic-free Alpha MEM with 10% v/v heat-inactivated (56° C., 40 min) fetal calf serum. Doubling times were approximately 14h for AA8 and […] cells.
(§2) air/N2 ratio Ratio of IC50 values after exposure as detailed above under either aerobic (air) or hypoxic (N2) conditions (=aerobic IC50 /hypoxic IC50).
(§3) HF Ratio of IC50 values for a compound after exposure as detailed above against AA8 and UV4 cell lines (=IC50 (AA8)/IC50 (UV4)).

UV4 cells [2] = assay: Growth inhibition, UV4 cells with lethally-irradiated AA8 feeder cells, aerobic or hypoxic 18 h (Table 3); format: cell-based; settings: aerobic IC50 /hypoxic IC50, UV4, 18 h
Procedure: as §1, §2, §3

[3] = Square wave voltammetry, peak potential of cathodic wave; format: physicochemical; settings: vs NHE, platinum disc electrode, 0.15 M (n-Bu4 N)ClO4 in CH2 Cl2, ferrocene internal reference
Text: E1/2 Peak potentials (vs NHE) of cathodic wave, determined by square wave voltammetry at a platinum disc electrode in 0.15 M (n-Bu4 N)ClO4 in CH2 Cl2 with ferrocene as an internal reference.

AA8 cells [4] = assay: Growth inhibition, AA8 cells, aerobic 18 h (Table 2); format: cell-based, hamster; settings: 18 h exposure, 5 determinations
Procedure: (§4) ([Co(Macac)2 (DCE)]ClO4) was prepared as described in Example E. Growth inhibition studies were performed as described in detail by W. R. Wilson, R. F. Anderson and W. A. Denny in J. Med. Chem., 1989 32, 23 and by G. J. Finlay, B. C. Baguley and W. R. Wilson in Anal. Biochem., 1984, 139, 172, herein specifically incorporated by reference. 200 AA8 cells in 96 well tissue culture dishes, 300 UV4 cells in 96 well tissue culture dishes, 300 UV5 cells in 96 well tissue culture dishes, 50 EMT6 cells in 96 well tissue culture dishes, 200 SCC7 cells in 96 well tissue culture dishes, 1500 FME cells in 96 well tissue culture dishes and 500 HCT-8 cells in 96 well tissue culture dishes were prepared. The cells were maintained in logarithmic-phase growth in 25 cm tissue culture flasks with subculture twice weekly by trypsinization. The growth medium was antibiotic-free Alpha MEM with 10% v/v heat-inactivated (56° C., 40 min.) fetal calf serum. Doubling times were approximately 14 hours for AAS, 16 hours for UV4, 16 hours for UV5, 10 hours for EMT6, 14 hours for SCC7, 24 hours for FME and 20 hours for HCT-8 cells. Cultures were tested for mycoplasma contamination frequently, using a cytochemical staining method (I. R. Chen, Exp. Cell Res., 1977, 104, 255). […]

UV4 cells [5] = assay: Growth inhibition, UV4 cells, aerobic 18 h (Table 2); format: cell-based; settings: 18 h exposure, 5 determinations
Procedure: as §4

UV5 cells = assay: Growth inhibition, UV5 cells, aerobic 18 h (Table 2); format: cell-based; settings: 18 h exposure, 1 determination
Procedure: as §4

EMT6 cells = assay: Growth inhibition, EMT6 cells, aerobic 18 h (Table 2); format: cell-based; settings: 18 h exposure, 6 determinations
Procedure: as §4

SCC7 cells = assay: Growth inhibition, SCC7 cells, aerobic 18 h (Table 2); format: cell-based; settings: 18 h exposure, 1 determination
Procedure: as §4

FME cells = assay: Growth inhibition, FME cells, aerobic 18 h (Table 2); format: cell-based, human
Procedure: as §4

HCT-8 cells = assay: Growth inhibition, HCT-8 cells, aerobic 18 h (Table 2); format: cell-based; settings: HCT-8 (human colon carcinoma), 18 h exposure, 1 determination
Procedure: as §4

Substance | IC50 (AA8 cells [1]) | HF(air) (AA8 cells [1]) | IC50 (air)/IC50 (N2) AA8 (AA8 cells [1]) | IC50 (air)/IC50 (N2) UV4 (UV4 cells [2]) | E1/2 [3] | IC50 (AA8 cells [4]) | IC50 (UV4 cells [5]) | IC50 (UV5 cells) | IC50 (EMT6 cells) | IC50 (SCC7 cells) | IC50 (FME cells; FME (human breast carcinoma), aerobic, 18 h exposure, 6 determinations) | potency in human lines as compared to AA8 (FME cells; FME and HCT-8 versus AA8, aerobic) | IC50 (HCT-8 cells)
[Co(acac)2 (BCE)]ClO4 [Compound 1] | 893000 ± 161000 nM | 14.0 ± 4.3 | 0.42 ± 0.06 | 3.76 ± 1.46 | -308 mV | – | – | – | – | – | – | – | –
[Co(Clacac)2 (BCE)]Cl [Compound 5] | 26100 ± 2000 nM | 12.8 ± 3.5 | 0.54 ± 0.12 | 0.92 ± 0.21 | -132 mV | – | – | – | – | – | – | – | –
[Co(Macac)2 (BCE)]ClO4 [Compound 2] | 992000 nM | 3.25 | < 1 | – | -420 mV | – | – | – | – | – | – | – | –
[Co(Macac)2 (DCE)]ClO4 [Compound 7] | 2910 ± 470 nM | 50.8 ± 3.7 | 2.81 ± 0.16 | 2.03 ± 0.47 | -307 mV | 4560 ± 620 nM | 100 ± 20 nM | 2640 nM | 1610 ± 210 nM | 310 nM | 1300 ± 130 nM | higher potency (lower IC50) in both of the human lines as compared to AA8 | 4440 nM
[Co(acac)2 (DCE)]ClO4 [Compound 6] | 1750 ± 100 nM | 48.2 ± 9.0 | 1.33 ± 0.13 | 0.85 ± 0.03 | -232 mV | – | – | – | – | – | – | – | –
[Co(Pracac)2 (BCE)]ClO4 [Compound 4] | 18500 ± 3300 nM | 3.5 ± 0.7 | 0.85 ± 0.35 | 1.20 ± 0.50 | -500 mV | – | – | – | – | – | – | – | –
[Co(Etacac)2 (BCE)]ClO4 [Compound 3] | 139000 ± 18300 nM | 4.8 ± 1.4 | 0.79 ± 0.24 | 1.77 ± 0.75 | -460 mV | – | – | – | – | – | – | – | –
[Co(Etacac)2 (DCE)]Cl.2H2 O [Compound 8] | 1560 ± 80 nM | 21.2 ± 4.0 | 1.28 ± 0.23 | 2.14 ± 0.56 | -352 mV | – | – | – | – | – | – | – | –
